Where a name gives a salt, the structure may show the parent alone.
Columns and labels:
5-HT1A receptor = biological target: T1, 5-HT1A receptor (Rattus norvegicus, UniProt P19327); assay: Affinity for 5-HT1A receptors, shift of (3H)8-OH-DPAT in rat cerebral cortex; assay type: binding; details: mean of at least 3 experiments, read-out: 5-HT1A affinity (pKi) (converted)
T1 construct: the cerebral cortex is sampled and homogenized in 20 volumes of buffer; from tissue; host or cells: rat cerebral cortex homogenate (membranes)
T1 sequence (P19327 1-422): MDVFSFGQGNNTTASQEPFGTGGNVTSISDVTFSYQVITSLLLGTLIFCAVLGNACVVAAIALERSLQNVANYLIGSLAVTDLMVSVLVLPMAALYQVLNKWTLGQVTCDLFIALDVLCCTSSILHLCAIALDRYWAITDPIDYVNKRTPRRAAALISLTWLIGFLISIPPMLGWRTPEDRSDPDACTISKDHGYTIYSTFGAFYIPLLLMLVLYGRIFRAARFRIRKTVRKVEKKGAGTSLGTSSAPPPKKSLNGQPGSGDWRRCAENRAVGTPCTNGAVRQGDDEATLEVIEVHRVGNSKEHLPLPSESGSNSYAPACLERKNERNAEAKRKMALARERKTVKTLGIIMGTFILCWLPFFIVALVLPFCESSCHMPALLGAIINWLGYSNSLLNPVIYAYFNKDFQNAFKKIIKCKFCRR
Procedure: (§1) The affinity of the compounds of the invention for the rat 5-HT1A receptor was measured conventionally from competitive experiments with a radiolabelled 5-HT1A agonist. […] This test is widely used since it is predictive of antidepressant action in man. Analgesic activity was determined after intra-peritoneal administration to rats, both with a physiological pain model and a pathological pain model. By physiological pain, the inventors designate pain whose origin is a lesion and/or organic ill-function such as pain caused by excessive nociceptive stimuli.
The in vitro affinity of the compounds of the invention for the 5-HT1A receptors was determined by measuring the shift of (^3H)8-OH-DPAT (agonist of 5HT1A receptors labelled with tritium, TRK 850; 160-240 Ci/mmole).
The study on binding with the 5-HT1A receptor was conducted as described in Naunyn-Schmiedeberg's Arch. Pharmaco. 1991, 343, 106. For these experiments, rat cerebral cortices were used. After unfreezing the brain in Tris-HCl buffer 50 mmol, pH=7.40 at 25° C., the cerebral cortex is sampled and homogenized in 20 volumes of buffer held at 4° C. The homogenate is centrifuged at 39000 g for 10 min, the centrifuge residue is suspended in the same volume of buffer and again centrifuged. After further suspension under the same conditions, the homogenate is incubated for 10 min at 37° C. then again centrifuged. The final residue is suspended in cold reaction buffer Tris-HCl 50 mmol, pH=7.40 at 25° C. containing […] of pargyline, 4 mmol of CaCl2 and 0.10% ascorbic acid. The final concentration of the tissue in the incubation medium is 10 mg/tube.
The reaction tubes contain 0.10 mL of (^3H)8-OH-DPAT (final […]), 0.10 mL of product to be tested 6-7 concentrations and 0.80 mL of tissue. Non-specific binding is defined using […] of 5-HT. The reaction tubes are incubated at 23° C. for 30 min then their content is rapidly vacuum filtered through Whatman GF/B filters, the tubes are rinsed with 2×5 mL of Tris-HCl buffer 50 mmol, pH=7.4 at 25° C. Radioactivity is collected on the filter and analyzed by liquid scintillation by adding 4 mL of scintillating liquid (Emulsifier Safe, Packard). All experiments were performed in triplicate.
The inhibition constants (Ki) of the products of the invention are estimated from shift experiments using the non-linear regression programme RADLIG version 4 by EBDA (Equilibrium Binding Data Analysis Biosoft, Cambridge, UK, Mc Pherson, 1985). The dissociation constant of the radioactive ligand used for calculations is […] for (^3H)8-OH-DPAT. The values of pKi (−log Ki) are given in the form mean±SEM of at least 3 experiments.

[1] = tested on: rats, oxaliplatine-induced allodynia; assay: Oxaliplatine test, von Frey (analgesic activity, pathological pain); assay type: in vivo; details: rat, i.p., even at a dose of 2.5 mg/kg
Description: (§2) The physiological pain model chosen by the inventors to determine the analgesic activity of the compounds of the invention uses excess nociceptive stimuli (injection of formol) to cause a painful sensation in animal (Eur. J. Pharmacol. 2001, 421, 109). For the so-called pathological pain model in animal, the inventors chose to use pain induced by the injection of a cytotoxic agent such as oxaliplatine (Eur. J. Cancer 2007, 2658).
The rats (Male Sprague Dawley rats (ICO: OFA SD [IOPS], Iffa Credo, France) are tested a first time on the Friday to determine their mechanical sensitivity threshold (von Frey test). They are then given an intra-peritoneal injection (i.p.) of oxaliplatine (anticancer treatment causing neuropathic pain in patients) at a dose of 8 mg/kg. This dose in rat induces neuropathy which translates as mechanical hypersensitivity (allodynia) which develops 3 days after the injection with a peak on day five. For the study of the compounds of the invention, the animals are re-tested on day five, 15 min after administration of the compound via intra-peritoneal route.
The pressure force is then measured (in g) at which withdrawal of the paw of the animals is observed.

[2] = tested on: rats, forced swimming immobility; assay: Forced swimming test (antidepressant activity); assay type: in vivo; details: rat, oral, even at a dose of 40 mg/Kg
Procedure: as §1
The rats (Male Sprague Dawley rats (ICO: OFA SD [IOPS], Iffa Credo, France), are placed in a cylinder (45 cm high and 20 cm in diameter) filled with water at 25° C.±0.5 up to a height of 17 cm. This depth allows rats to swim or float without their tail touching the bottom of the cylinder.
24 h before the test day, the rats are placed in the cylinder for 15 min, a lapse of time after which they no longer attempt to escape and remain immobile. On the test day the animals are replaced in the cylinder and the duration of animal immobility is measured by direct observation followed by verification of an audiovisual recording for 5 min. The products of the invention are administered by oral route 60 min before the test. A rat is considered to be immobile if it allows itself to float and only makes small movements to remain on the surface. Two rats are observed at the same time.
(§3) Quantification of the effect of the compounds of the invention on the forced swimming tests and on the formol test is conducted by one-factor variance analysis between groups (ANOVA analysis) followed by a multiple comparison test (Dunnett's test) versus control animals. The ED50 value is calculated using Litchfield and Wilcoxon analysis from the percentage of responding animals.

[3] = tested on: rats, formol-induced pain; assay: Formol test (analgesic activity, physiological pain); assay type: in vivo; details: rat, i.p.
Description: as §2
The rats (Male Sprague Dawley rats (ICO: OFA SD [IOPS], Iffa Credo, France) are placed in plexiglass observation boxes above an angled mirror so as to facilitate observation of the hind paws. After thirty minutes of habituation, the animals are given an injection of formol diluted to 2.5% on the plantar surface of the right hind paw. The injection of formol produces behavioural responses which occur in two phases:
an acute phase, from 0 to 5 min after injection of the formol, corresponding to stimulation of receptors specialized in the transmission of pain messages to the spinal cord.
a late phase which occurs 20 to 30 min after the injection. This phase corresponds to stimulation of receptors by inflammatory mediators and/or to hyper-excitability of the dorsal horn induced during the first phase. This late phase therefore involves central sensitization.
For the study of the compounds of the invention we selected two expressions of painful behaviour and chose two periods of observation which correspond to the two pain phases (i.e. 0-5 min and 22.5-27.5 min). During these two 5-min periods the animals are observed every 30 seconds and are given scores for the following behaviours: paw licking or not of the injected paw, and lifting or non-lifting of the injected paw. Ten observations give a maximum score of 10 for each parameter for each of the 2 phases. The products of the invention are administered via intraperitoneal route 15 min before the injection of formol.
as §3
For this test, the animals are observed every 30 seconds during two periods of 5 min. The following behaviours are noted: paw licking or not of the injected paw, and paw lifting or not of the injected paw. Ten observations give a maximum score of 10 for each parameter for each of the 2 phases, measuring either paw lifting or paw licking. This test was also performed by comparison with administration of the vehicle (veh) alone.

Q: For `O=C(c1ccc(F)c(Cl)c1)N1CCC(F)(CNCC2CNc3ccccc3O2)CC1` (single isomer, unassigned; (-)) (as salt: fumarate) [Compound 1a1, (−)-(3-Chloro-4-fluoro-phenyl)-{4-fluoro-4-[(3,4-dihydro-2H-1,4-benzoxazine-2-methanamino)-methyl]-pipéridin-1-yl}-methanone], which melting point is on record?
A: 185 °C

Q: For `NC(=O)c1cccc2c1OC(CNCC1(F)CCN(C(=O)c3ccc(F)c(Cl)c3)CC1)CN2` (stereo not drawn) [Compound 1h, (3-Chloro-4-fluoro-phenyl)-{4-fluoro-4-[(3,4-dihydro-2H-8-carbamoyl-1,4-benzoxazine-2-methanamino)-methyl]-piperidin-1-yl}-methanone], which Ki (5-HT1A receptor) is on record?
A: 741 pM

Q: With `N#Cc1cccc2c1OC(CNCC1(F)CCN(C(=O)c3ccc(F)c(Cl)c3)CC1)CN2` (stereo not drawn) [Compound 1f, (3-Chloro-4-fluoro-phenyl)-{4-fluoro-4-[(3,4-dihydro-2H-8-cyano-1,4-benzoxazine-2-methanamino)-methyl]-piperidin-1-yl}-methanone] as the molecule, how does the Ki (5-HT1A receptor) read?
A: 646 pM

Q: Which Ki (5-HT1A receptor) does the source give for `O=C(c1ccc(F)c(Cl)c1)N1CCC(F)(CNCC2CNc3cccc(F)c3O2)CC1` (stereo not drawn) [Compound 1b, (3-Chloro-4-fluoro-phenyl)-{4-fluoro-4-[(3,4-dihydro-2H-8-fluoro-1,4-benzoxazine-2-methanamino)-methyl]-piperidin-1-yl}-methanone] here?
A: 631 pM

Q: For `O=C(c1ccc(F)c(Cl)c1)N1CCC(F)(CNCC2CNc3ccccc3O2)CC1` (stereo not drawn) (as salt: hydrochloride) [Compound 1a3, (3-Chloro-4-fluoro-phenyl)-{4-fluoro-4-[(3,4-dihydro-2H-1,4-benzoxazine-2-methanamino)-methyl]-piperidin-1-yl}-methanone], which melting point is on record?
A: 175 °C

Q: For `CN1CC(CNCC2(F)CCN(C(=O)c3ccc(F)c(Cl)c3)CC2)Oc2ccccc21` (stereo not drawn) (as salt: fumarate) [Compound 1g, (3-Chloro-4-fluoro-phenyl)-{4-fluoro-4-[(3,4-dihydro-2H-4-methyl-1,4-benzoxazine-2-methanamino)-methyl]-piperidin-1-yl}-methanone], which melting point is on record?
A: 125 °C

Q: For `O=C(c1ccc(F)c(Cl)c1)N1CCC(F)(CNCC2CNc3cccc(Cl)c3O2)CC1` (stereo not drawn) [Compound 1d, (3-Chloro-4-fluoro-phenyl)-{4-fluoro-4-[(3,4-dihydro-2H-8-chloro-1,4-benzoxazine-2-methanamino)-methyl]-piperidin-1-yl}-methanone], which Ki (5-HT1A receptor) is on record?
A: 2290 pM

Q: With `O=C(c1ccc(F)c(Cl)c1)N1CCC(F)(CNCC2CNc3cccc(F)c3O2)CC1` (stereo not drawn) (as salt: fumarate) [Compound 1b, (3-Chloro-4-fluoro-phenyl)-{4-fluoro-4-[(3,4-dihydro-2H-8-fluoro-1,4-benzoxazine-2-methanamino)-methyl]-piperidin-1-yl}-methanone] as the molecule, how does the melting point read?
A: 100 °C

Q: With `Cc1cccc2c1OC(CNCC1(F)CCN(C(=O)c3ccc(F)c(Cl)c3)CC1)CN2` (stereo not drawn) [Compound 1c, (3-Chloro-4-fluoro-phenyl)-{4-fluoro-4-[(3,4-dihydro-2H-8-methyl-1,4-benzoxazine-2-methanamino)-methyl]-piperidin-1-yl}-methanone] as the molecule, how does the Ki (5-HT1A receptor) read?
A: 1230 pM

Q: For `O=C1CC2(CCCC2)CC(=O)N1CCCCN1CCN(c2ncccn2)CC1` [buspirone, reference compound], which “analgesia, in words” value [1] is on record?
A: does not produce any significant analgesia

Q: What about the “effect on animal immobility” value [2] of the same molecule?
A: no effect on animal immobility

Q: What about the “dose on and after which paw lifting is affected” value ([3]; acute phase and late phase) of the same molecule?
A: ≥ 2.5 mg/kg

Q: What about the “dose on and after which paw licking is inhibited” value ([3]; late phase) of the same molecule?
A: ≥ 2.5 mg/kg

Q: With `COc1cccc2c1OC(CNCC1(F)CCN(C(=O)c3ccc(F)c(Cl)c3)CC1)CN2` (stereo not drawn) [Compound 1e, (3-Chloro-4-fluoro-phenyl)-{4-fluoro-4-[(3,4-dihydro-2H-8-methoxy-1,4-benzoxazine-2-methanamino)-methyl]-piperidin-1-yl}-methanone] as the molecule, how does the Ki (5-HT1A receptor) read?
A: 1510 pM

Q: With `CN1CC(CNCC2(F)CCN(C(=O)c3ccc(F)c(Cl)c3)CC2)Oc2ccccc21` (stereo not drawn) [Compound 1g, (3-Chloro-4-fluoro-phenyl)-{4-fluoro-4-[(3,4-dihydro-2H-4-methyl-1,4-benzoxazine-2-methanamino)-methyl]-piperidin-1-yl}-methanone] as the molecule, how does the Ki (5-HT1A receptor) read?
A: 794 pM
